Assays:
Assay in all cases: relative viability (nuclei count vs DMSO), 5 days (fraction); higher = more cells survive
[1] = tested on: NCI-H1755
Summary of the method: (§1)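 One day after seeding in 1536-well plates, lung cancer cell lines were dosed by pin tool. Dosing was either single-drug or a fixed anchor-drug dose plus five library-drug doses (not always all listed) in √10 steps. After 5 days, nuclei were stained in one fix-and-stain step and counted on 4× images, and relative viability is the nuclei count of treated wells over that of vehicle wells, given as the median of duplicate plates.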

[2] = tested on: NCI-H1623
Summary of the method: as §1

[3] = tested on: NCI-H1666
Summary of the method: as §1

[4] = tested on: NCI-H1650
Summary of the method: as §1

[5] = tested on: NCI-H650
Summary of the method: as §1

[6] = tested on: NCI-H1563
Summary of the method: as §1

`Oc1nc(-c2ccc(C(F)(F)F)cc2)nc2c1CSCC2` [XAV939] + Cc1nc(Nc2ncc(C(=O)Nc3c(C)cccc3Cl)s2)cc(N2CCN(CCO)CC2)n1 [Dasatinib] (partner 0.075 µM) showed a relative viability ([1]; first compound 0.08 µM) of 0.484, a relative viability ([1]; first compound 0.253 µM) of 0.324 and a relative viability ([1]; first compound 0.8 µM) of 0.424. For the same molecule, the relative viability ([1]; first compound 2.53 µM) was 0.413, the relative viability ([2]; first compound 0.08 µM) was 0.474 and the relative viability ([2]; first compound 0.253 µM) was 0.516. It also gave a relative viability ([2]; first compound 0.8 µM) of 0.521, a relative viability ([2]; first compound 2.53 µM) of 0.555 and a relative viability ([3]; first compound 0.08 µM) of 0.921. For the same molecule, the relative viability ([3]; first compound 0.253 µM) was 0.801, the relative viability ([3]; first compound 0.8 µM) was 0.761 and the relative viability ([3]; first compound 2.53 µM) was 0.744. For the same molecule, the relative viability ([4]; first compound 0.08 µM) was 0.331, the relative viability ([4]; first compound 0.253 µM) was 0.323 and the relative viability ([4]; first compound 0.8 µM) was 0.263. For the same molecule, the relative viability ([4]; first compound 2.53 µM) was 0.288, the relative viability ([5]; first compound 0.08 µM) was 0.497 and the relative viability ([5]; first compound 0.253 µM) was 0.501. The relative viability ([5]; first compound 0.8 µM) was 0.444, the relative viability ([5]; first compound 2.53 µM) was 0.414 and the relative viability ([6]; first compound 0.08 µM) was 0.422. For the same molecule, the relative viability ([6]; first compound 0.253 µM) was 0.442, the relative viability ([6]; first compound 0.8 µM) was 0.475 and the relative viability ([6]; first compound 2.53 µM) was 0.415.
In the case of `C=C1C(=O)O[C@@H](CCCCCCCC)[C@@H]1C(=O)O` [C-75] + Cc1nc(Nc2ncc(C(=O)Nc3c(C)cccc3Cl)s2)cc(N2CCN(CCO)CC2)n1 [Dasatinib] (partner 0.075 µM), the relative viability ([1]; first compound 0.08 µM) is reported as 0.42, the relative viability ([1]; first compound 0.253 µM) is reported as 0.33 and the relative viability ([1]; first compound 0.8 µM) is reported as 0.404. The relative viability ([1]; first compound 2.53 µM) was 0.259, the relative viability ([1]; first compound 8 µM) was 0.43 and the relative viability ([2]; first compound 0.08 µM) was 0.591. For the same molecule, the relative viability ([2]; first compound 0.253 µM) was 0.649, the relative viability ([2]; first compound 0.8 µM) was 0.516 and the relative viability ([2]; first compound 2.53 µM) was 0.447. It also gave a relative viability ([2]; first compound 8 µM) of 0.695, a relative viability ([3]; first compound 0.08 µM) of 0.836 and a relative viability ([3]; first compound 0.253 µM) of 0.779. For the same molecule, the relative viability ([3]; first compound 0.8 µM) was 0.74, the relative viability ([3]; first compound 2.53 µM) was 0.719 and the relative viability ([3]; first compound 8 µM) was 0.711. It also gave a relative viability ([4]; first compound 0.08 µM) of 0.334, a relative viability ([4]; first compound 0.253 µM) of 0.359 and a relative viability ([4]; first compound 2.53 µM) of 0.31. For the same molecule, the relative viability ([4]; first compound 8 µM) was 0.305, the relative viability ([5]; first compound 0.08 µM) was 0.469 and the relative viability ([5]; first compound 0.253 µM) was 0.328. It also gave a relative viability ([5]; first compound 0.8 µM) of 0.383, a relative viability ([5]; first compound 2.53 µM) of 0.358 and a relative viability ([5]; first compound 8 µM) of 0.398. The relative viability ([6]; first compound 0.08 µM) was 0.387, the relative viability ([6]; first compound 0.253 µM) was 0.453 and the relative viability ([6]; first compound 0.8 µM) was 0.444. For the same molecule, the relative viability ([6]; first compound 2.53 µM) was 0.415 and the relative viability ([6]; first compound 8 µM) was 0.569.

From the supplement of paper PMC10307832
